# Experiments:
# Assay in all cases: Pre-emergent herbicidal activity (Table A)
# Assay type in all cases: in vivo
# Wild Buckwheat = conditions: Fallopia convolvulus, pre-emergence, Wibw, 11.2 kg/ha, 10-14 days, read-out: herbicidal rating (% inhibition)
# Summary of the method: (§1)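 Seeds were sown on compacted topsoil and covered with soil into which test compound (in acetone or water carrier) had been mixed at 11.2 kg/ha. Pans were kept watered on a greenhouse bench, and percent inhibition was scored as a rating about 10-14 days (usually 11) after treatment.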
# Annual Bluegrass = conditions: pre-emergence, Anbg, 11.2 kg/ha, 10-14 days, read-out: herbicidal rating (% inhibition)
# Summary of the method: as §1
# Indian Mustard = conditions: Brassica juncea, pre-emergence, Inmu, 11.2 kg/ha, 10-14 days, read-out: herbicidal rating (% inhibition)
# Summary of the method: as §1
# Seedling Johnsongrass = conditions: Sorghum halepense, pre-emergence, Sejg, 11.2 kg/ha, 10-14 days, read-out: herbicidal rating (% inhibition)
# Summary of the method: as §1
# Morningglory = conditions: Ipomoea, pre-emergence, Mogl, 11.2 kg/ha, 10-14 days, read-out: herbicidal rating (% inhibition)
# Summary of the method: (§2)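 Percent inhibition per species, scored on a rating scale, after pre-emergent soil incorporation: test compound in acetone or water carrier mixed into cover soil, layered over seeded topsoil or vegetative propagules.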
# Velvetleaf = conditions: Abutilon theophrasti, pre-emergence, Vele, 11.2 kg/ha, 10-14 days, read-out: herbicidal rating (% inhibition)
# Summary of the method: as §2
# Downy Brome = conditions: Bromus tectorum, pre-emergence, Dobr, 11.2 kg/ha, 10-14 days, read-out: herbicidal rating (% inhibition)
# Summary of the method: as §2
# Yellow Nutsedge = conditions: Cyperus, pre-emergence, Yens, 11.2 kg/ha, 10-14 days, read-out: herbicidal rating (% inhibition)
# Summary of the method: as §2
# Barnyardgrass = conditions: Echinochloa crus-galli, pre-emergence, Bygr, 11.2 kg/ha, 10-14 days, read-out: herbicidal rating (% inhibition)
# Summary of the method: as §2
# Cocklebur = conditions: Xanthium strumarium, pre-emergence, Cobu, 11.2 kg/ha, 10-14 days, read-out: herbicidal rating (% inhibition)
# Summary of the method: as §2
SMILES,inhibition at 11200 g/ha (Wild Buckwheat) [%],inhibition at 11200 g/ha (Annual Bluegrass) [%],inhibition at 11200 g/ha (Indian Mustard) [%],inhibition at 11200 g/ha (Seedling Johnsongrass) [%],inhibition at 11200 g/ha (Morningglory) [%],inhibition at 11200 g/ha (Velvetleaf) [%],inhibition at 11200 g/ha (Downy Brome) [%],inhibition at 11200 g/ha (Yellow Nutsedge) [%],inhibition at 11200 g/ha (Barnyardgrass) [%],inhibition at 11200 g/ha (Cocklebur) [%]
COC(=O)c1c(OC)nc(C(F)(F)F)c(C=NCCO)c1CC(C)C [Compound 128],50 to 74,75 to 100,75 to 100,75 to 100,50 to 74,25 to 49,75 to 100,0 to 24,75 to 100,0 to 24
"COC(=O)c1c(OC)nc(C(F)(F)F)c(-c2nccs2)c1CC(C)C [Compound 129, 3-pyridinecarboxylic acid, 2-methoxy-4-(2-methylpropyl)-5-(2-thiazolyl)-6-(trifluoromethyl)-, methyl ester]",75 to 100,75 to 100,75 to 100,75 to 100,75 to 100,75 to 100,75 to 100,75 to 100,75 to 100,50 to 74
"COC(=O)c1c(OC)nc(C(F)(F)F)c(-c2ncco2)c1CC(C)C [Compound 130, 3-pyridinecarboxylic acid, 2-methoxy-4-(2-methylpropyl)-5-(2-oxazolyl)-6-(trifluoromethyl)-, methyl ester]",75 to 100,75 to 100,75 to 100,75 to 100,75 to 100,75 to 100,75 to 100,75 to 100,75 to 100,25 to 49
"COc1nc(C(F)(F)F)c(C(=O)n2cccn2)c(CC(C)C)c1C(=O)SC [Compound 131, 3-pyridinecarbothioic acid, 2-methoxy-4-(2-methylpropyl)-5-(1H-pyrazo1-1-ylcarbonyl)-6-(trifluoromethyl)-, S-methyl ester]",75 to 100,75 to 100,75 to 100,75 to 100,75 to 100,75 to 100,75 to 100,75 to 100,75 to 100,50 to 74
"COC(=O)c1c(OC)nc(C(F)(F)F)c(C(=O)N2CCCO2)c1CC(C)C [Compound 132, 3-pyridinecarboxylic acid, 5-(2-isoxazolidinecarbonyl)-2-methoxy-4-(2-methylpropyl)-6-(trifluoromethyl)-, methyl ester]",75 to 100,75 to 100,75 to 100,75 to 100,50 to 74,75 to 100,75 to 100,0 to 24,75 to 100,0 to 24
"COc1nc(C(F)(F)F)c(C(=O)Cl)c(CC(C)C)c1C(=O)SC [Compound 133, 3-pyridinecarbothioic acid, 5-(chlorocarbonyl)-2-methoxy-4-(2-methylpropyl)-6-(trifluoromethyl)-, S-methyl ester]",0 to 24,0 to 24,25 to 49,0 to 24,0 to 24,0 to 24,0 to 24,0 to 24,0 to 24,0 to 24
"COc1nc(C(F)(F)F)c(CO)c(CC(C)C)c1C(=O)SC [Compound 134, 3-pyridinecarbothioic acid, 5-(hydroxymethyl)-2-methoxy-4-(2-methylpropyl)-6-(trifluoromethyl)-, S-methyl ester]",0 to 24,75 to 100,25 to 49,0 to 24,0 to 24,50 to 74,0 to 24,0 to 24,75 to 100,0 to 24
"COc1nc(C(F)(F)F)c(C=O)c(CC(C)C)c1C(=O)SC [Compound 135, 3-pyridinecarbothioic acid, 5-formy1-2-methoxy-4-(2-methylpropyl)-6-(trifluoromethyl)-, S-methyl ester]",25 to 49,75 to 100,75 to 100,50 to 74,0 to 24,50 to 74,75 to 100,0 to 24,75 to 100,0 to 24
"COc1nc(C(F)(F)F)c(C2OCCCO2)c(CC(C)C)c1C(=O)SC [Compound 136, 3-pyridinecarbothioic acid, 5-(1,3-dioxan-2-yl)-2-methoxy-4-(2-methylpropyl)-6-(trifluoromethyl)-, S-methyl ester]",75 to 100,75 to 100,75 to 100,75 to 100,50 to 74,50 to 74,75 to 100,25 to 49,75 to 100,50 to 74
"COC(=O)c1c(OC)nc(C(F)(F)F)c(C(=O)Cl)c1C1CCC1 [Compound 138, 3-pyridinecarboxylic acid, 5-(chlorocarbonyl)-4-cyclobuty1-2-methoxy-6-(trifluoromethyl)-, methyl ester]",0 to 24,0 to 24,0 to 24,0 to 24,0 to 24,0 to 24,0 to 24,0 to 24,0 to 24,0 to 24
"COC(=O)c1c(OC)nc(C(F)(F)F)c(C=O)c1C1CCC1 [Compound 139, 3-pyridinecarboxylic acid, 4-cyclobuty1-5-formy1-2-methoxy-6-(trifluoromethyl)-, methyl ester]",75 to 100,75 to 100,75 to 100,75 to 100,50 to 74,75 to 100,75 to 100,0 to 24,75 to 100,0 to 24
COC(=O)c1c(OC)nc(C(F)(F)F)c(C(=O)n2cncn2)c1C1CCC1 [Compound 141],75 to 100,75 to 100,75 to 100,75 to 100,75 to 100,75 to 100,75 to 100,50 to 74,75 to 100,0 to 24

# — patent US5391540A, “Substituted pyridine compounds” (Rohm and Haas Company, priority 1993, dated 1995)
